What all share (assay): two-electrode voltage clamp, Xenopus oocytes
For orientation: Two-electrode voltage clamp holds a large cell at a set potential and records current.

One assay deals with T1, OR21.
T1 construct: full-length cDNA from adult antennae in pT7Ts; co-expressed with ORCO in Xenopus oocytes; with Odorant receptor coreceptor
The class given is cell-based, Cimex lectularius. Conditions: co-expressed with ORCO; pH 7.6 Ringer's solution; −80 mV; agonist current.

For the next assay, the system named is T2, OR5.
T2 construct: full-length cDNA from adult antennae in pT7Ts; co-expressed with ORCO in Xenopus oocytes; called OR1 in the group's previous work; with Odorant receptor coreceptor
In kind it is cell-based, Cimex lectularius. Conditions: co-expressed with ORCO; pH 7.6 Ringer's solution; −80 mV; agonist current.

In another assay the test system is T3, OR42.
T3 construct: full-length cDNA from adult antennae in pT7Ts; co-expressed with ORCO in Xenopus oocytes; with Odorant receptor coreceptor
In kind it is cell-based, Cimex lectularius. As to conditions: co-expressed with ORCO; pH 7.6 Ringer's solution; −80 mV; agonist current.

The test system of the next assay is T4, OR1.
T4 construct: full-length cDNA from adult antennae in pT7Ts; co-expressed with ORCO in Xenopus oocytes; OR numbering of the bed bug genome annotation (47 ORs), not the earlier group naming in which OR5 was called OR1; with Odorant receptor coreceptor
In kind it is cell-based, Cimex lectularius. Conditions: co-expressed with ORCO; pH 7.6 Ringer's solution; −80 mV; agonist current.

The test system of a further assay is T5, OR15.
T5 construct: full-length cDNA from adult antennae in pT7Ts; co-expressed with ORCO in Xenopus oocytes; with Odorant receptor coreceptor
The class given is cell-based, Cimex lectularius. As to conditions: co-expressed with ORCO; pH 7.6 Ringer's solution; −80 mV; agonist current.

Another assay deals with T6, OR20.
T6 construct: full-length cDNA from adult antennae in pT7Ts; co-expressed with ORCO in Xenopus oocytes; with Odorant receptor coreceptor
The class given is cell-based, Cimex lectularius. As to conditions: co-expressed with ORCO; pH 7.6 Ringer's solution; −80 mV; agonist current.

For a further assay, the system named is T7, OR19.
T7 construct: full-length cDNA from adult antennae in pT7Ts; co-expressed with ORCO in Xenopus oocytes; with Odorant receptor coreceptor
The class given is cell-based, Cimex lectularius. As to conditions: co-expressed with ORCO; pH 7.6 Ringer's solution; −80 mV; agonist current.

The next assay concerns T8, OR36.
T8 construct: full-length cDNA from adult antennae in pT7Ts; co-expressed with ORCO in Xenopus oocytes; with Odorant receptor coreceptor
The class given is cell-based, Cimex lectularius. Conditions: co-expressed with ORCO, pH 7.6 Ringer's solution, −80 mV, agonist current.

Another assay concerns T9, OR46.
T9 construct: full-length cDNA from adult antennae in pT7Ts; co-expressed with ORCO in Xenopus oocytes; with Odorant receptor coreceptor
The class given is cell-based, Cimex lectularius. As to conditions: co-expressed with ORCO; pH 7.6 Ringer's solution; −80 mV; agonist current.

The target in another assay is T10, OR37 (Cimex lectularius, UniProt A0A8I6S1W4).
T10 construct: gene 106669445; full-length cDNA from adult antennae in pT7Ts; co-expressed with ORCO in Xenopus oocytes; with Odorant receptor coreceptor
In kind it is cell-based. Conditions: co-expressed with ORCO; pH 7.6 Ringer's solution; −80 mV; agonist current.

In the next assay the test system is T11, OR47.
T11 construct: full-length cDNA from adult antennae in pT7Ts; co-expressed with ORCO in Xenopus oocytes; with Odorant receptor coreceptor
The class given is cell-based, Cimex lectularius. As to conditions: co-expressed with ORCO; pH 7.6 Ringer's solution; −80 mV; agonist current.

The test system of the next assay is T12, OR12.
T12 construct: full-length cDNA from adult antennae in pT7Ts; co-expressed with ORCO in Xenopus oocytes; with Odorant receptor coreceptor
The class given is cell-based, Cimex lectularius. Conditions: co-expressed with ORCO; pH 7.6 Ringer's solution; −80 mV; agonist current.

The structures appear in SMILES notation.

In article PMC5382537, “Molecular Basis of Olfactory Chemoreception in the Common Bed Bug, Cimex lectularius” (Scientific Reports, 2017) one finds EC50 data, which are given here for 16 compounds.

T10 sequence (A0A8I6S1W4 1-374): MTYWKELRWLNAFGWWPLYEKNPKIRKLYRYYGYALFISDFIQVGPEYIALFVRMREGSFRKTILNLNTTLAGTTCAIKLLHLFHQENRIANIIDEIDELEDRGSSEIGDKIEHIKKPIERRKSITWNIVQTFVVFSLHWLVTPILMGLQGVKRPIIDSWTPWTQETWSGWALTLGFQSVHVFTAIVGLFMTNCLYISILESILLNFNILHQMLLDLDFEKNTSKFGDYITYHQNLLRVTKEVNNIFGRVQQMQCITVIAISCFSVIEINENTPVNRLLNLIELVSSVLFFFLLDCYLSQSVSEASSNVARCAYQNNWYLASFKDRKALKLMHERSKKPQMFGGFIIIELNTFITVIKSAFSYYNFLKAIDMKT
T10 sequence (A0A0A0U7J0 1-451 partner): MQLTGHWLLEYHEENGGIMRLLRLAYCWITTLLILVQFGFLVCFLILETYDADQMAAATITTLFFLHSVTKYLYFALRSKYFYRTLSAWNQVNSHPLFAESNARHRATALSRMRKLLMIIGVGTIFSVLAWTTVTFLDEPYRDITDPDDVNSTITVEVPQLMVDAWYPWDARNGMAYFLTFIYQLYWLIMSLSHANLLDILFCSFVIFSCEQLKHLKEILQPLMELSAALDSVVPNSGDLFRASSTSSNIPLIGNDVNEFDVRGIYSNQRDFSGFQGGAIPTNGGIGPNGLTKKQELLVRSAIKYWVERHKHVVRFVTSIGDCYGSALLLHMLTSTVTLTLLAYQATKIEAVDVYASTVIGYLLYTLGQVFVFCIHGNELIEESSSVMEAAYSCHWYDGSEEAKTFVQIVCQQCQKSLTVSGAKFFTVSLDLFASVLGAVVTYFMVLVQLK

Turning to `CCCCCCCCCC=O` [decanal], the EC50 in the assay with OR21 is 4.27 × 10^−6 v/v dilution; in the assay on OR5 it was 1.53 × 10^−6 v/v dilution.
`CC1=CC[C@@H]2C[C@H]1C2(C)C` [(+)-α-pinene]: the EC50 with OR42 is given as 1.32 × 10^−5 v/v dilution.
For the compound `CC12CCC(CC1)C(C)(C)O2` [eucalyptol], the EC50 in the assay with OR1 is recorded as 1.88 × 10^−5 v/v dilution.
Turning to `C=C1CC/C=C(\C)CC[C@@H]2[C@@H]1CC2(C)C` [β-caryophyllene], the EC50 in the assay on OR15 is on record as 6.46 × 10^−6 v/v dilution.
Consider `C=CC(O)CCCCC` (centres unmarked) [1-octen-3-ol], for which the EC50 with OR20 is recorded as 6.95 × 10^−6 v/v dilution.
With `CCCCC(C)=O` [2-hexanone], the EC50 in the assay on OR19 is listed as 1.33 × 10^−6 v/v dilution.
As to `CC(C)[C@@H]1CC[C@@H](C)CC1=O` [(−)-menthone], in the assay with OR36, the EC50 was 1.64 × 10^−7 v/v dilution.
In the case of `CC1=CC[C@@H]2[C@H](C1)C2(C)C` [1s-(+)-3-carene], the EC50 with OR20 is listed as 6.85 × 10^−6 v/v dilution.
As to `CCCCCCCCC(C)O` (centres unmarked) [2-decanol], the EC50 in the assay with OR21 was 7.55 × 10^−6 v/v dilution.
Regarding `CCCCCCCCC=O` [nonanal], the EC50 in the assay on OR5 is 1.32 × 10^−7 v/v dilution.
`CC12CCC(CC1=O)C2(C)C` (centres unmarked) [camphor]: the EC50 in the assay on OR1 is 1.94 × 10^−5 v/v dilution.
`CCCC(C)=O` [2-pentanone]: the EC50 in the assay on OR19 was 4.13 × 10^−6 v/v dilution.
`CC(C)[C@H]1CC[C@H](C)CC1=O` [(+)-menthone]: the EC50 is listed as 3.46 × 10^−5 v/v dilution in the assay with OR46, 9.92 × 10^−8 v/v dilution in the assay on OR36 (b26 prints 9.67 × 10^−8 for the same pair) and 1.93 × 10^−7 v/v dilution at OR37.
Take `O=c1ccc2ccccc2o1` [coumarin]: the EC50 with OR42 is reported as 1.45 × 10^−5 v/v dilution; in the assay with OR47 it was 2 × 10^−5 v/v dilution.
As for `CC(C)=CCCC(C)=CC=O` [citral], the EC50 on OR37 is recorded as 3.32 × 10^−8 v/v dilution.
For `CCCCC/C=C/CO` [trans-2-octen-1-ol], the EC50 in the assay with OR12 is on record as 1.03 × 10^−4 v/v dilution.
